Measured values reported in publication PMC10436263 (2023).

Columns and labels:
Experiment in all cases: X-ray crystallography
[1] = system: d(5′-CGCGAATTCGCG-3′)2 (AATT) (DNA, duplex) CGCGAATTCGCG
[2] = system: d(5′-CGCAAAAAAGCG-3′/5′-CGCTTTTTTGCG-3′) (A6) (DNA, duplex) CGCAAAAAAGCG/CGCTTTTTTGCG; details: crystallization details in Table S1 (not seen); two orientations (8F1S, 8F1V); 2.1 Å
[3] = system: d(5′-CGCGAAAACGCG-3′/5′-CGCGTTTTCGCG-3′) (A4) (DNA, duplex) CGCGAAAACGCG/CGCGTTTTCGCG; details: crystallization details in Table S1 (not seen); 1.55 Å
[4] = system: d(5′-CGCAAATTTGCG-3′)2 (AAATTT, A3T3) (DNA, duplex) CGCAAATTTGCG; details: crystallization details in Table S1 (not seen); 1.54 Å
[5] = system: d(5′-CGCGATATCGCG-3′)2 (ATAT) (DNA, duplex) CGCGATATCGCG; details: crystallization details in Table S1 (not seen); 1.63 Å
[6] = system: d(5′-GCTGGATATATCCAGC-3′)2 (ATATAT) (DNA, duplex) GCTGGATATATCCAGC; details: 600 mM CaCl2; 10 mM HEPES pH 8.6, 40% PEG200 (well); 1.50 Å

binding ([1]; 20 mM MgCl2, 80 mM NaCl, 12 mM KCl, 40 mM sodium cacodylate pH 6.0, 12 mM spermine, 10% MPD, two orientations (8EC1 I, 8ED6 II)) | binding [2] | binding [3] | binding [4] | binding [5] | binding [6] | binding ([1]; crystallization details in Table S1 (not seen)) | SMILES
yes | yes | yes | yes | yes | yes | – | N=C(N)c1ccc(-c2ccc3nc(-c4ccc(C(=N)N)cc4)[nH]c3c2)cc1
– | – | – | – | – | – | yes | N=C(N)c1ccc(-c2ccc3cc(-c4ccc(C(=N)N)cc4)[nH]c3c2)cc1
